Data from patent US8148373B2, “Compounds” (AstraZeneca AB, priority 2008, dated 2012).

How the values were obtained:
[1] = biological target: T1, Adrenergic β2 (H292 cells) (Homo sapiens, UniProt P07550); assay: Adrenergic β2 Mediated cAMP Production, single concentration 1 μM; assay type: cell-based; conditions: percentage of the maximum response generated by 1E-07M formoterol; for activation at 1 µM: NCI-H292, 1 μM compound, read-out: β2 (% effect at 1 μM)
T1 construct: endogenous in cells; host or cells: H292 cells
How it was run: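 cAMP was quantified by AlphaScreen in lysates of H292 cells and reported as a percentage of the 1E-07M formoterol maximum. Before lysis the cells, seeded the previous day, received rolipram (300 μM final) and then test compound at a final 1 μM in 1% DMSO for 60 min at room temperature.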

[2] = biological target: T2, human muscarinic acetylcholine M3 receptor (M3-ACh) (Homo sapiens, UniProt P20309); assay: Muscarinic 3 Receptor Binding Assay, % inhibition specific binding at 1 μM; conditions: 1 μM compound, % inhibition specific [3H]-NMS binding
T2 construct: expressed in transfected cells; host or cells: CHO-K1 (Chinese Hamster Ovary) cell membranes
How it was run: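 Value is % inhibition of specific [3H]N-methyl scopolamine binding (0.1 nM, quarter Kd) by 1 μM compound, using SPA beads precoated with human M3-expressing CHO-K1 membranes. Buffer HEPES pH 7.4 with MgCl2 and 1% DMSO; 16 h at room temperature; 1 μM atropine sets non-specific binding.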

T2 sequence (P20309 whole entry): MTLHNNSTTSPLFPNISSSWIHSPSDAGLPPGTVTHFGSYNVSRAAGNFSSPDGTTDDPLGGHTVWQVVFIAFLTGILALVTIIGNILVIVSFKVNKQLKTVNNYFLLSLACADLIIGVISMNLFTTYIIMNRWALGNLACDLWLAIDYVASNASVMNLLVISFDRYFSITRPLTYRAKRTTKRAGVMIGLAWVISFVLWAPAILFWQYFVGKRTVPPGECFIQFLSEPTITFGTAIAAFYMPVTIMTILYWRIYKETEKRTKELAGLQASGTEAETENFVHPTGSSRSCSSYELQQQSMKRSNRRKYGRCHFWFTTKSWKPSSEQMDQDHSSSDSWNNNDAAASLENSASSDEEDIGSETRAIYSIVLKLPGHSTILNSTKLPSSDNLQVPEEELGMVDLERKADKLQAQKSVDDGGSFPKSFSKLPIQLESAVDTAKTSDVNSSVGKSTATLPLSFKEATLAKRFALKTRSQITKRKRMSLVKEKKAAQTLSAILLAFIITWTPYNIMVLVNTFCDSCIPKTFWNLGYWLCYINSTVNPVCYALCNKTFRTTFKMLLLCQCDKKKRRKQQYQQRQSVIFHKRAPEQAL
T1 sequence (P07550 whole entry): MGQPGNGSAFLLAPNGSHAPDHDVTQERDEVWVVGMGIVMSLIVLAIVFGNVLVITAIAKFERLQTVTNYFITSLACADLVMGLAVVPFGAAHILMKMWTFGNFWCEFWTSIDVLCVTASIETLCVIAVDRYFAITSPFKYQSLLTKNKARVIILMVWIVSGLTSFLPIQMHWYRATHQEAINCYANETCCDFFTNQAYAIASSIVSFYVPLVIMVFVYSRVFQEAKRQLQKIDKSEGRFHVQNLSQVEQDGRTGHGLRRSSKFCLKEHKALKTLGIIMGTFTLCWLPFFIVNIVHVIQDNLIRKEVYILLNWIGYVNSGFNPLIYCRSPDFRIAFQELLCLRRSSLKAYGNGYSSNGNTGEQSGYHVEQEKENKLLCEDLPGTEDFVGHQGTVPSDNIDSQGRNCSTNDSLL

| activation at 1 µM [1] | inhibition at 1 µM [2] | Compound | β2 (% effect at 1 μM) ([1]; 1 μM compound) | M3 (% inhibition at 1 μM) ([2]; 1 µM) |
| --- | --- | --- | --- | --- |
|  |  | O=C(c1ccc(-c2ccccc2)cc1)N1CCOC2(CCN(Cc3cc(F)cc(CCNC[C@H](O)c4ccc(O)c5[nH]c(=O)sc45)c3)CC2)C1 [Example 171, (R)-7-(2-(3-((4-(biphenylcarbonyl)-1-oxa-4,9-diazaspiro[5.5]undecan-9-yl)methyl)-5-fluorophenethylamino)-1-hydroxyethyl)-4-hydroxybenzo[d]thiazol-2(3H)-one] | 86% | 11% |
| 69% | 82% | O=C(c1csc(C2CCCC2)n1)N1CCOC2(CCN(CCOc3ccc(CNC[C@H](O)c4ccc(O)c5[nH]c(=O)sc45)cc3)CC2)C1 [Example 262, (R)-7-(2-(4-(2-(4-(2-cyclopentylthiazole-4-carbonyl)-1-oxa-4,9-diazaspiro[5.5]undecan-9-yl)ethoxy)benzylamino)-1-hydroxyethyl)-4-hydroxy-benzo[d]thiazol-2(3H)-one] |  |  |
| 104% | 4% | O=C(c1ccc(-c2cc[nH]n2)cc1)N1CCOC2(CCN(Cc3cc(F)cc(CCNC[C@H](O)c4ccc(O)c5[nH]c(=O)sc45)c3)CC2)C1 [Example 148, (R)-7-(2-(3-((4-(4-(1H-pyrazol-3-yl)benzoyl)-1-oxa-4,9-diazaspiro[5.5]undecan-9-yl)methyl)-5-fluorophenethylamino)-1-hydroxyethyl)-4-hydroxybenzo[d]thiazol-2(3H)-one] |  |  |
| 82% | 91% | CC(C)c1cc(C(=O)N2CCOC3(CCN(CCCCCCCCCNC[C@H](O)c4ccc(O)c5[nH]c(=O)sc45)CC3)C2)no1 [Example 214, (R)-4-hydroxy-7-(1-hydroxy-2-(9-(4-(5-isopropylisoxazole-3-carbonyl)-1-oxa-4,9-diazaspiro[5.5]undecan-9-yl)nonylamino)ethyl)benzo[d]thiazol-2(3H)-one] |  |  |
| 101% | 35% | O=C(Cc1noc2ccccc12)N1CCOC2(CCN(Cc3cc(F)cc(CCNC[C@H](O)c4ccc(O)c5[nH]c(=O)sc45)c3)CC2)C1 [Example 144, (R)-7-(2-(3-((4-(2-(benzo[d]isoxazol-3-yl)acetyl)-1-oxa-4,9-diazaspiro[5.5]undecan-9-yl)methyl)-5-fluorophenethylamino)-1-hydroxyethyl)-4-hydroxybenzo[d]thiazol-2(3H)-one] |  |  |
| 76% | 53% | O=C(Cc1cccs1)N1CCOC2(CCN(CCOc3ccc(CNC[C@H](O)c4ccc(O)c5[nH]c(=O)sc45)cc3)CC2)C1 [Example 226, (R)-4-hydroxy-7-(1-hydroxy-2-(4-(2-(4-(2-(thiophen-2-yl)acetyl)-1-oxa-4,9-diazaspiro[5.5]undecan-9-yl)ethoxy)benzylamino)ethyl) benzo[d]thiazol-2(3H)-one] |  |  |
| 90% | 3% | O=C(c1ccc(-c2cnco2)cc1)N1CCOC2(CCN(Cc3cc(F)cc(CCNC[C@H](O)c4ccc(O)c5[nH]c(=O)sc45)c3)CC2)C1 [Example 159, (R)-7-(2-(3-fluoro-5-((4-(4-(oxazol-5-yl)benzoyl)-1-oxa-4,9-diazaspiro[5.5]undecan-9-yl)methyl)phenethylamino)-1-hydroxyethyl)-4-hydroxybenzo[d]thiazol-2(3H)-one] |  |  |
| 67% | 22% | O=C(CCc1ccccc1)N1CCOC2(CCN(CCOc3ccc(CNC[C@H](O)c4ccc(O)c5[nH]c(=O)sc45)cc3)CC2)C1 [Example 228, (R)-4-hydroxy-7-(1-hydroxy-2-(4-(2-(4-(3-phenylpropanoyl)-1-oxa-4,9-diazaspiro[5.5]undecan-9-yl)ethoxy)benzylamino)ethyl) benzo[d]thiazol-2(3H)-one] |  |  |
| 78% | 1% | O=C(Cn1c(C(F)(F)F)nc2ccccc21)N1CCOC2(CCN(Cc3cc(F)cc(CCNC[C@H](O)c4ccc(O)c5[nH]c(=O)sc45)c3)CC2)C1 [Example 177, (R)-7-(2-(3-fluoro-5-((4-(2-(2-(trifluoromethyl)-1H-benzo[d]imidazol-1-yl)acetyl)-1-oxa-4,9-diazaspiro[5.5]undecan-9-yl)methyl)phenethylamino)-1-hydroxyethyl)-4-hydroxybenzo[d]thiazol-2(3H)-one] |  |  |
| 91% | 99% | Cc1ccoc1C(=O)N1CCOC2(CCN(CCCCCCCCCNC[C@H](O)c3ccc(O)c4[nH]c(=O)sc34)CC2)C1 [Example 193, (R)-4-hydroxy-7-(1-hydroxy-2-(9-(4-(3-methylfuran-2-carbonyl)-1-oxa-4,9-diazaspiro[5.5]undecan-9-yl)nonylamino)ethyl)benzo[d]thiazol-2(3H)-one] |  |  |
| 92% | 84% | O=C(CCc1ccccc1)N1CCOC2(CCN(CCCCCCCCCNC[C@H](O)c3ccc(O)c4[nH]c(=O)sc34)CC2)C1 [Example 187, (R)-4-hydroxy-7-(1-hydroxy-2-(9-(4-(3-phenylpropanoyl)-1-oxa-4,9-diazaspiro[5.5]undecan-9-yl)nonylamino)ethyl)benzo[d]thiazol-2(3H)-one] |  |  |
| 71% | 92% | Cc1csc(C(=O)N2CCOC3(CCN(CCOc4ccc(CNC[C@H](O)c5ccc(O)c6[nH]c(=O)sc56)cc4)CC3)C2)c1 [Example 254, (R)-4-hydroxy-7-(1-hydroxy-2-(4-(2-(4-(4-methylthiophene-2-carbonyl)-1-oxa-4,9-diazaspiro[5.5]undecan-9-yl)ethoxy)benzylamino)ethyl) benzo[d]thiazol-2(3H)-one] |  |  |
| 101% | 97% | Cc1ccn(CC(=O)N2CCOC3(CCN(CCCCCCCCCNC[C@H](O)c4ccc(O)c5[nH]c(=O)sc45)CC3)C2)n1 [Example 204, (R)-4-hydroxy-7-(1-hydroxy-2-(9-(4-(2-(3-methyl-1H-pyrazol-1-yl)acetyl)-1-oxa-4,9-diazaspiro[5.5]undecan-9-yl)nonylamino)ethyl)benzo[d]thiazol-2(3H)-one] |  |  |
| 99% | 94% | O=C(COCc1ccccc1)N1CCOC2(CCN(CCCCCCCCCNC[C@H](O)c3ccc(O)c4[nH]c(=O)sc34)CC2)C1 [Example 203, (R)-7-(2-(9-(4-(2-(benzyloxy)acetyl)-1-oxa-4,9-diazaspiro[5.5]undecan-9-yl)nonylamino)-1-hydroxyethyl)-4-hydroxybenzo[d]thiazol-2(3H)-one] |  |  |
| 99% | 35% | O=C(CCn1cncn1)N1CCOC2(CCN(Cc3cc(F)cc(CCNC[C@H](O)c4ccc(O)c5[nH]c(=O)sc45)c3)CC2)C1 [Example 164, (R)-7-(2-(3-((4-(3-(1H-1,2,4-triazol-1-yl)propanoyl)-1-oxa-4,9-diazaspiro[5.5]undecan-9-yl)methyl)-5-fluorophenethylamino)-1-hydroxyethyl)-4-hydroxybenzo[d]thiazol-2(3H)-one] |  |  |
| 89% | 96% | Cn1cccc1C(=O)N1CCOC2(CCN(CCCCCCCCCNC[C@H](O)c3ccc(O)c4[nH]c(=O)sc34)CC2)C1 [Example 184, (R)-4-hydroxy-7-(1-hydroxy-2-(9-(4-(1-methyl-1H-pyrrole-2-carbonyl)-1-oxa-4,9-diazaspiro[5.5]undecan-9-yl)nonylamino)ethyl)benzo[d]thiazol-2(3H)-one] |  |  |
| 80% | 48% | O=C(Cc1ccccc1)N1CCOC2(CCN(CCOc3ccc(CNC[C@H](O)c4ccc(O)c5[nH]c(=O)sc45)cc3)CC2)C1 [Example 227, (R)-4-hydroxy-7-(1-hydroxy-2-(4-(2-(4-(2-phenylacetyl)-1-oxa-4,9-diazaspiro[5.5]undecan-9-yl)ethoxy)benzylamino)ethyl) benzo[d]thiazol-2(3H)-one] |  |  |
| 97% | 62% | O=C(Cc1ccc(-c2ccccc2)cc1)N1CCOC2(CCN(Cc3cc(F)cc(CCNC[C@H](O)c4ccc(O)c5[nH]c(=O)sc45)c3)CC2)C1 [Example 123, (R)-7-(2-(3-((4-(2-(biphenyl-4-yl)acetyl)-1-oxa-4,9-diazaspiro[5.5]undecan-9-yl)methyl)-5-fluorophenethylamino)-1-hydroxyethyl)-4-hydroxybenzo[d]thiazol-2(3H)-one] |  |  |
| 95% | 95% | O=C(CCOc1ccccc1)N1CCOC2(CCN(CCCCCCCCCNC[C@H](O)c3ccc(O)c4[nH]c(=O)sc34)CC2)C1 [Example 206, (R)-4-hydroxy-7-(1-hydroxy-2-(9-(4-(3-phenoxypropanoyl)-1-oxa-4,9-diazaspiro[5.5]undecan-9-yl)nonylamino)ethyl)benzo[d]thiazol-2(3H)-one] |  |  |
| 100% | 8% | Cc1noc(C)c1CC(=O)N1CCOC2(CCN(Cc3cc(F)cc(CCNC[C@H](O)c4ccc(O)c5[nH]c(=O)sc45)c3)CC2)C1 [Example 167, (R)-7-(2-(3-((4-(2-(3,5-dimethylisoxazol-4-yl)acetyl)-1-oxa-4,9-diazaspiro[5.5]undecan-9-yl)methyl)-5-fluorophenethylamino)-1-hydroxyethyl)-4-hydroxybenzo[d]thiazol-2(3H)-one] |  |  |
| 73% | 35% | O=C(c1ccsc1Cl)N1CCOC2(CCN(CCOc3ccc(CNC[C@H](O)c4ccc(O)c5[nH]c(=O)sc45)cc3)CC2)C1 [Example 253, (R)-7-(2-(4-(2-(4-(2-chlorothiophene-3-carbonyl)-1-oxa-4,9-diazaspiro[5.5]undecan-9-yl)ethoxy)benzylamino)-1-hydroxyethyl)-4-hydroxy-benzo[d]thiazol-2(3H)-one] |  |  |
